Data from the NIST ThermoML archive (doi:10.1021/acs.jced.5b00627).

How the values were obtained:
[1] = mn = molality of the nth substance listed, in mol/kg; conditions: 100 kPa, Liquid; for viscosity: Capillary tube (Ostwald / Ubbelohde) method; for speed of sound: Frequency=3 MHz, Sing-around technique in a fixed-path interferometer; for mass density: Vibrating tube method
[2] = for Normal melting temperature: Crystal, DTA; for viscosity: 100 kPa, Capillary tube (Ostwald / Ubbelohde) method; for viscosity / speed of sound / mass density: Liquid; for speed of sound / mass density: 101.33 kPa; for speed of sound: Sing-around technique in a fixed-path interferometer; for mass density: Vibrating tube method

COc1cc(-c2cc(-c3ccccc3O)[nH]c(=O)c2C#N)ccc1O + C[S+](C)[O-]
[1]
Conditions | mass density, 298.15 K [kg/m3] | mass density, 308.15 K [kg/m3] | mass density, 318.15 K [kg/m3] | speed of sound, 298.15 K [m/s] | speed of sound, 308.15 K [m/s] | speed of sound, 318.15 K [m/s] | viscosity, 298.15 K [mPa·s] | viscosity, 308.15 K [mPa·s] | viscosity, 318.15 K [mPa·s]
m1 = 0.01 | 1096.09 | 1086.41 | 1076.4 | 1486 | 1452.1 | 1418.6 | 1.88 | 1.535 | 1.247
m1 = 0.02 | 1097.16 | 1087.16 | 1077.18 | 1487 | 1453.1 | 1419.5 | 1.958 | 1.57 | 1.287
m1 = 0.04 | 1098.32 | 1088.47 | 1078.47 | 1488.6 | 1454.2 | 1420.8 | 2.037 | 1.608 | 1.327
m1 = 0.06 | 1099.5 | 1089.66 | 1079.56 | 1490.2 | 1455.2 | 1422 | 2.124 | 1.645 | 1.359
m1 = 0.08 | 1100.68 | 1090.65 | 1080.71 | 1491.7 | 1456.3 | 1423 | 2.201 | 1.685 | 1.399
m1 = 0.1 | 1101.83 | 1091.96 | 1081.9 | 1493.5 | 1457 | 1424.3 | 2.301 | 1.716 | 1.458

COc1cc(-c2cc(-c3ccc(Cl)cc3)[nH]c(=O)c2C#N)ccc1O
Conditions | Normal melting temperature [°C]
[2] | 328.34

C[S+](C)[O-] [dimethyl sulfoxide] + COc1cc(-c2cc(-c3ccc(Cl)cc3)[nH]c(=O)c2C#N)ccc1O
[1], m2 = 0
Conditions | mass density [kg/m3] | speed of sound [m/s] | viscosity [mPa·s]
298.15 K | 1095.28 | 1484.8 | 1.814
308.15 K | 1085.23 | 1450.9 | 1.472
318.15 K | 1075.19 | 1417.4 | 1.176

COc1cc(-c2cc(-c3ccc(O)cc3)[nH]c(=O)c2C#N)ccc1O + C[S+](C)[O-]
[1]
Conditions | mass density, 298.15 K [kg/m3] | mass density, 308.15 K [kg/m3] | mass density, 318.15 K [kg/m3] | speed of sound, 298.15 K [m/s] | speed of sound, 308.15 K [m/s] | speed of sound, 318.15 K [m/s] | viscosity, 298.15 K [mPa·s] | viscosity, 308.15 K [mPa·s] | viscosity, 318.15 K [mPa·s]
m1 = 0.01 | 1096.12 | 1086.44 | 1076.45 | 1486.3 | 1452.4 | 1419 | 1.885 | 1.544 | 1.265
m1 = 0.02 | 1097.17 | 1087.19 | 1077.22 | 1487.3 | 1453.2 | 1420.1 | 1.963 | 1.576 | 1.312
m1 = 0.04 | 1098.34 | 1088.48 | 1078.49 | 1488.9 | 1454.5 | 1421.5 | 2.06 | 1.623 | 1.364
m1 = 0.06 | 1099.52 | 1089.69 | 1079.59 | 1490.6 | 1455.6 | 1422.7 | 2.144 | 1.663 | 1.392
m1 = 0.08 | 1100.69 | 1090.67 | 1080.74 | 1492 | 1456.5 | 1424 | 2.243 | 1.704 | 1.421
m1 = 0.1 | 1101.86 | 1091.98 | 1081.94 | 1493.7 | 1457.4 | 1425.1 | 2.323 | 1.729 | 1.462

C[S+](C)[O-] [dimethyl sulfoxide] + COc1cc(-c2cc(-c3ccccc3O)[nH]c(=O)c2C#N)ccc1O
[1], m2 = 0
Conditions | mass density [kg/m3] | speed of sound [m/s] | viscosity [mPa·s]
298.15 K | 1095.28 | 1484.8 | 1.814
308.15 K | 1085.23 | 1450.9 | 1.472
318.15 K | 1075.19 | 1417.4 | 1.176

COc1cc(-c2cc(-c3ccccc3O)[nH]c(=O)c2C#N)ccc1O
Conditions | Normal melting temperature [°C]
[2] | 234.49

C[S+](C)[O-] [dimethyl sulfoxide] + COc1cc(-c2cc(-c3ccc(O)cc3)[nH]c(=O)c2C#N)ccc1O
[1], m2 = 0
Conditions | mass density [kg/m3] | speed of sound [m/s] | viscosity [mPa·s]
298.15 K | 1095.28 | 1484.8 | 1.814
308.15 K | 1085.23 | 1450.9 | 1.472
318.15 K | 1075.19 | 1417.4 | 1.176

C[S+](C)[O-] [dimethyl sulfoxide]
[2]
Conditions | mass density [kg/m3] | speed of sound [m/s] | viscosity [mPa·s]
298.15 K | 1095.28 | 1484.8 | 1.814
308.15 K | 1085.23 | 1450.9 | 1.472
318.15 K | 1075.19 | 1417.4 | 1.176

COc1cc(-c2cc(-c3ccc(Cl)cc3)[nH]c(=O)c2C#N)ccc1O + C[S+](C)[O-]
[1]
Conditions | mass density, 298.15 K [kg/m3] | mass density, 308.15 K [kg/m3] | mass density, 318.15 K [kg/m3] | speed of sound, 298.15 K [m/s] | speed of sound, 308.15 K [m/s] | speed of sound, 318.15 K [m/s] | viscosity, 298.15 K [mPa·s] | viscosity, 308.15 K [mPa·s] | viscosity, 318.15 K [mPa·s]
m1 = 0.01 | 1096.42 | 1086.43 | 1076.43 | 1486.1 | 1452.4 | 1418.9 | 1.954 | 1.545 | 1.264
m1 = 0.02 | 1097.3 | 1087.47 | 1077.19 | 1487.2 | 1453.4 | 1419.9 | 1.993 | 1.571 | 1.294
m1 = 0.04 | 1098.53 | 1088.83 | 1078.52 | 1488.4 | 1454.7 | 1421 | 2.037 | 1.614 | 1.324
m1 = 0.06 | 1099.79 | 1089.98 | 1079.89 | 1489.6 | 1455.9 | 1422.2 | 2.081 | 1.655 | 1.355
m1 = 0.08 | 1100.99 | 1091.08 | 1080.99 | 1490.5 | 1456.7 | 1423.2 | 2.129 | 1.699 | 1.391
m1 = 0.1 | 1102.29 | 1092.32 | 1082.35 | 1491.1 | 1457.6 | 1424.5 | 2.172 | 1.73 | 1.427

COc1cc(-c2cc(-c3ccc(O)cc3)[nH]c(=O)c2C#N)ccc1O
Conditions | Normal melting temperature [°C]
[2] | 326.33

C[S+](C)[O-] [dimethyl sulfoxide] + COc1cc(-c2cc(-c3ccccc3)[nH]c(=O)c2C#N)ccc1O
[1], m2 = 0
Conditions | mass density [kg/m3] | speed of sound [m/s] | viscosity [mPa·s]
298.15 K | 1095.28 | 1484.8 | 1.814
308.15 K | 1085.23 | 1450.9 | 1.472
318.15 K | 1075.19 | 1417.4 | 1.176

COc1cc(-c2cc(-c3ccccc3)[nH]c(=O)c2C#N)ccc1O + C[S+](C)[O-]
[1]
Conditions | mass density, 298.15 K [kg/m3] | mass density, 308.15 K [kg/m3] | mass density, 318.15 K [kg/m3] | speed of sound, 298.15 K [m/s] | speed of sound, 308.15 K [m/s] | speed of sound, 318.15 K [m/s] | viscosity, 298.15 K [mPa·s] | viscosity, 308.15 K [mPa·s] | viscosity, 318.15 K [mPa·s]
m1 = 0.01 | 1096.02 | 1086.02 | 1076.08 | 1485.9 | 1451.9 | 1418.1 | 1.876 | 1.525 | 1.242
m1 = 0.02 | 1096.69 | 1086.78 | 1076.69 | 1486.8 | 1452.8 | 1419.1 | 1.916 | 1.562 | 1.276
m1 = 0.04 | 1097.59 | 1087.93 | 1077.85 | 1488 | 1453.9 | 1420.5 | 1.976 | 1.603 | 1.319
m1 = 0.06 | 1098.59 | 1088.74 | 1078.84 | 1489.1 | 1455 | 1421.6 | 2.02 | 1.638 | 1.345
m1 = 0.08 | 1099.69 | 1089.59 | 1079.75 | 1490.3 | 1456 | 1422.6 | 2.063 | 1.668 | 1.37
m1 = 0.1 | 1100.84 | 1090.64 | 1080.75 | 1491 | 1456.8 | 1423.7 | 2.107 | 1.697 | 1.41

COc1cc(-c2cc(-c3ccccc3)[nH]c(=O)c2C#N)ccc1O
Conditions | Normal melting temperature [°C]
[2] | 343.12
